Assay results: patent publication US10202361B2, “Pyridazinones as herbicides” (E I DU PONT DE NEMOURS AND COMPANY, priority 2014, dated 2019)
Read-outs that look alike come from different tables or passages of the source.

Key:
Test in all cases: Test C pre-/postemergence greenhouse herbicide test
Type in all cases: in vivo
[1] = system: barnyardgrass (Echinochloa crus-galli); settings: Barnyardgrass
Outline: (§1)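 Seeds in loam–sand blend sprayed preemergence, and 1- to 4-leaf plants (2–18 cm) sprayed postemergence, with compounds in non-phytotoxic solvent plus surfactant. Visual rating versus controls after 13–15 d in greenhouse, 0 (no effect) to 100 (complete control).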

corn (Zea mays) = settings: Zea mays, Corn, read-out: Plant response rating; for plant injury at 31 g/ha: 31 g ai/ha; for plant injury at 62 g/ha: 62 g ai/ha; for plant injury at 125 g/ha: 125 g ai/ha; for plant injury at 250 g/ha: 250 g ai/ha
Outline: as §1

[2] = system: galium (catchweed bedstraw, Galium aparine); settings: Galium, read-out: Plant response rating; for pest or weed control at 31 g/ha: 31 g ai/ha; for pest or weed control at 62 g/ha: 62 g ai/ha; for pest or weed control at 125 g/ha: 125 g ai/ha; for pest or weed control at 250 g/ha: 250 g ai/ha
Outline: as §1

[3] = system: johnsongrass (Sorghum halepense); settings: Sorghum halepense, Johnsongrass, read-out: Plant response rating; for pest or weed control at 31 g/ha: 31 g ai/ha; for pest or weed control at 62 g/ha: 62 g ai/ha; for pest or weed control at 125 g/ha: 125 g ai/ha; for pest or weed control at 250 g/ha: 250 g ai/ha
Outline: as §1

kochia (Kochia scoparia) = settings: Postemergence
Outline: as §1

[4] = system: lambsquarters (Chenopodium album)
Outline: as §1

[5] = system: morningglory (Ipomoea coccinea); settings: Morningglory
Outline: as §1

[6] = system: nutsedge, yellow (yellow nutsedge, Cyperus esculentus); settings: Cyperus, Nutsedge, Yellow, read-out: Plant response rating; for pest or weed control at 31 g/ha: 31 g ai/ha; for pest or weed control at 62 g/ha: 62 g ai/ha; for pest or weed control at 125 g/ha: 125 g ai/ha; for pest or weed control at 250 g/ha: 250 g ai/ha
Outline: as §1

[7] = system: oat, wild (wild oat, Avena fatua); settings: Postemergence
Outline: as §1

[8] = system: pigweed (Amaranthus retroflexus); settings: Amaranthus retroflexus, Pigweed, read-out: Plant response rating; for pest or weed control at 62 g/ha: 62 g ai/ha; for pest or weed control at 125 g/ha: 125 g ai/ha; for pest or weed control at 250 g/ha: 250 g ai/ha
Outline: as §1

soybean (Glycine max) = settings: Glycine max, Soybean, read-out: Plant response rating; for plant injury at 62 g/ha: 62 g ai/ha; for plant injury at 125 g/ha: 125 g ai/ha; for plant injury at 250 g/ha: 250 g ai/ha
Outline: as §1

[9] = system: waterhemp (common waterhemp, Amaranthus rudis); settings: Waterhemp
Outline: as §1

[10] = system: wheat (winter wheat, Triticum aestivum); settings: Triticum aestivum, Wheat, read-out: Plant response rating; for plant injury at 62 g/ha: 62 g ai/ha; for plant injury at 125 g/ha: 125 g ai/ha; for plant injury at 250 g/ha: 250 g ai/ha
Outline: as §1

[11] = post-emergence, Postemergence, 31 g ai/ha

In the case of `COc1cc(=O)n(-c2ccc(F)cc2)nc1Cc1ccnc(C(F)(F)F)c1` [Compound 17, 2-(4-fluorophenyl)-5-methoxy-6-[[2-(trifluoromethyl)-4-pyridinyl]methyl]-3 (2H)-pyridazinone], the Plant response rating ([1]; Postemergence, 31 g ai/ha) is reported as 5, the Plant response rating ([1]; Postemergence, 62 g ai/ha) is reported as 5 and the Plant response rating ([1]; Postemergence, 125 g ai/ha) is reported as 10. The Plant response rating ([1]; Postemergence, 250 g ai/ha) was 35, the Plant response rating ([1]; Preemergence, 31 g ai/ha) was 80 and the Plant response rating ([1]; Preemergence, 62 g ai/ha) was 90. The Plant response rating ([1]; Preemergence, 125 g ai/ha) was 100, the Plant response rating ([1]; Preemergence, 250 g ai/ha) was 100 and the plant injury at 31 g/ha (corn (Zea mays); post-emergence, Postemergence) was 10%. It also gave a plant injury at 62 g/ha (corn (Zea mays); post-emergence, Postemergence) of 15%, a plant injury at 125 g/ha (corn (Zea mays); post-emergence, Postemergence) of 15% and a plant injury at 250 g/ha (corn (Zea mays); post-emergence, Postemergence) of 15%. It also gave a plant injury at 31 g/ha (corn (Zea mays); pre-emergence, Preemergence) of 45%, a plant injury at 62 g/ha (corn (Zea mays); pre-emergence, Preemergence) of 65% and a plant injury at 125 g/ha (corn (Zea mays); pre-emergence, Preemergence) of 85%. For the same compound, the plant injury at 250 g/ha (corn (Zea mays); pre-emergence, Preemergence) was 100%, the pest or weed control at 31 g/ha ([2]; post-emergence, Postemergence) was 60% and the pest or weed control at 62 g/ha ([2]; post-emergence, Postemergence) was 70%. The pest or weed control at 125 g/ha ([2]; post-emergence, Postemergence) was 75%, the pest or weed control at 250 g/ha ([2]; post-emergence, Postemergence) was 85% and the pest or weed control at 31 g/ha ([2]; pre-emergence, Preemergence) was 100%. It also gave a pest or weed control at 62 g/ha ([2]; pre-emergence, Preemergence) of 100%, a pest or weed control at 125 g/ha ([2]; pre-emergence, Preemergence) of 100% and a pest or weed control at 250 g/ha ([2]; pre-emergence, Preemergence) of 100%. For the same compound, the pest or weed control at 31 g/ha ([3]; post-emergence, Postemergence) was 5%, the pest or weed control at 62 g/ha ([3]; post-emergence, Postemergence) was 5% and the pest or weed control at 125 g/ha ([3]; post-emergence, Postemergence) was 5%. For the same compound, the pest or weed control at 250 g/ha ([3]; post-emergence, Postemergence) was 65%, the pest or weed control at 31 g/ha ([3]; pre-emergence, Preemergence) was 70% and the pest or weed control at 62 g/ha ([3]; pre-emergence, Preemergence) was 95%. The pest or weed control at 125 g/ha ([3]; pre-emergence, Preemergence) was 98%, the pest or weed control at 250 g/ha ([3]; pre-emergence, Preemergence) was 100% and the Plant response rating (kochia (Kochia scoparia); 31 g ai/ha) was 80. For the same compound, the Plant response rating (kochia (Kochia scoparia); 62 g ai/ha) was 90, the Plant response rating (kochia (Kochia scoparia); 125 g ai/ha) was 90 and the Plant response rating (kochia (Kochia scoparia); 250 g ai/ha) was 90. It also gave a Plant response rating ([4]; Postemergence, 31 g ai/ha) of 75, a Plant response rating ([4]; Postemergence, 62 g ai/ha) of 75 and a Plant response rating ([4]; Postemergence, 125 g ai/ha) of 90. The Plant response rating ([4]; Postemergence, 250 g ai/ha) was 90, the Plant response rating ([4]; Preemergence, 31 g ai/ha) was 95 and the Plant response rating ([4]; Preemergence, 62 g ai/ha) was 95. For the same compound, the Plant response rating ([4]; Preemergence, 125 g ai/ha) was 95, the Plant response rating ([4]; Preemergence, 250 g ai/ha) was 98 and the Plant response rating ([5]; Postemergence, 31 g ai/ha) was 65. It also gave a Plant response rating ([5]; Postemergence, 62 g ai/ha) of 65, a Plant response rating ([5]; Postemergence, 125 g ai/ha) of 65 and a Plant response rating ([5]; Postemergence, 250 g ai/ha) of 70. The Plant response rating ([5]; Preemergence, 31 g ai/ha) was 85, the Plant response rating ([5]; Preemergence, 62 g ai/ha) was 85 and the Plant response rating ([5]; Preemergence, 125 g ai/ha) was 100. The Plant response rating ([5]; Preemergence, 250 g ai/ha) was 100, the pest or weed control at 31 g/ha ([6]; post-emergence, Postemergence) was 5% and the pest or weed control at 62 g/ha ([6]; post-emergence, Postemergence) was 5%. It also gave a pest or weed control at 125 g/ha ([6]; post-emergence, Postemergence) of 10%, a pest or weed control at 250 g/ha ([6]; post-emergence, Postemergence) of 10% and a pest or weed control at 31 g/ha ([6]; pre-emergence, Preemergence) of 20%. For the same compound, the pest or weed control at 62 g/ha ([6]; pre-emergence, Preemergence) was 30%, the pest or weed control at 125 g/ha ([6]; pre-emergence, Preemergence) was 55% and the pest or weed control at 250 g/ha ([6]; pre-emergence, Preemergence) was 75%. For the same compound, the Plant response rating ([7]; 31 g ai/ha) was 10, the Plant response rating ([7]; 62 g ai/ha) was 15 and the Plant response rating ([7]; 125 g ai/ha) was 40. For the same compound, the Plant response rating ([7]; 250 g ai/ha) was 45, the pest or weed control at 62 g/ha ([8]; post-emergence, Postemergence) was 60% and the pest or weed control at 125 g/ha ([8]; post-emergence, Postemergence) was 60%. The pest or weed control at 250 g/ha ([8]; post-emergence, Postemergence) was 70%, the pest or weed control at 31 g/ha ([8]; pre-emergence, Preemergence, 31 g ai/ha) was 100% and the pest or weed control at 62 g/ha ([8]; pre-emergence, Preemergence) was 100%. For the same compound, the pest or weed control at 125 g/ha ([8]; pre-emergence, Preemergence) was 100%, the pest or weed control at 250 g/ha ([8]; pre-emergence, Preemergence) was 100% and the plant injury at 31 g/ha (soybean (Glycine max); [11]) was 80%. It also gave a plant injury at 62 g/ha (soybean (Glycine max); post-emergence, Postemergence) of 90%, a plant injury at 125 g/ha (soybean (Glycine max); post-emergence, Postemergence) of 90% and a plant injury at 250 g/ha (soybean (Glycine max); post-emergence, Postemergence) of 90%. It also gave a plant injury at 62 g/ha (soybean (Glycine max); pre-emergence, Preemergence) of 55%, a plant injury at 125 g/ha (soybean (Glycine max); pre-emergence, Preemergence) of 95% and a plant injury at 250 g/ha (soybean (Glycine max); pre-emergence, Preemergence) of 98%. For the same compound, the Plant response rating ([9]; Postemergence, 31 g ai/ha) was 60, the Plant response rating ([9]; Postemergence, 125 g ai/ha) was 85 and the Plant response rating ([9]; Postemergence, 250 g ai/ha) was 85. The Plant response rating ([9]; Preemergence, 62 g ai/ha) was 100, the Plant response rating ([9]; Preemergence, 125 g ai/ha) was 100 and the Plant response rating ([9]; Preemergence, 250 g ai/ha) was 100. The plant injury at 31 g/ha [10, 11] was 5%, the plant injury at 62 g/ha ([10]; post-emergence, Postemergence) was 5% and the plant injury at 125 g/ha ([10]; post-emergence, Postemergence) was 5%. The plant injury at 250 g/ha ([10]; post-emergence, Postemergence) was 10%, the plant injury at 62 g/ha ([10]; pre-emergence, Preemergence) was 5% and the plant injury at 125 g/ha ([10]; pre-emergence, Preemergence) was 50%. For the same compound, the plant injury at 250 g/ha ([10]; pre-emergence, Preemergence) was 65%.
